# In ChEMBL document CHEMBL1201862, “PubChem BioAssay data set” (2004):
#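 Five compound concentrations were applied to cells in 96-well plates for 48 hours; endpoints were derived by simple linear interpolation of the resulting dose-response curve. At the GI50, growth is halved.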 Activity calls are given as the source filed them. No stated cut-off is given here; in the data, active = GI50 up to about 1.1 µM and inactive = higher.
# Key:
# Experiment in all cases: NCI tumour cell line growth inhibition, 48 h
# NCI/ADR-RES = tested on: NCI/ADR-RES
# MOLT-4 = tested on: MOLT-4
# COLO 205 = tested on: COLO 205
# M14 = tested on: M14
# NCI-H460 = tested on: NCI-H460
# OVCAR-5 = tested on: OVCAR-5
# SNB-19 = tested on: SNB-19
# A549 = tested on: A549
# OVCAR-3 = tested on: OVCAR-3
# BT-549 = tested on: BT-549
# UACC-257 = tested on: UACC-257
# HOP-92 = tested on: HOP-92
# A498 = tested on: A498
# SF-539 = tested on: SF-539
# HT-29 = tested on: HT-29
# 786-0 = tested on: 786-0
# SK-MEL-28 = tested on: SK-MEL-28
# RXF 393 = tested on: RXF 393
# DLD-1 = tested on: DLD-1
# SF-295 = tested on: SF-295
# HCT-116 = tested on: HCT-116
# HOP-62 = tested on: HOP-62
# CCRF-CEM = tested on: CCRF-CEM
# IGROV-1 = tested on: IGROV-1
# SNB-78 = tested on: SNB-78
# RXF 631 = tested on: RXF 631
# SF-268 = tested on: SF-268
# Malme-3M = tested on: Malme-3M
# MDA-MB-231 = tested on: MDA-MB-231
# ACHN = tested on: ACHN
# HCC 2998 = tested on: HCC 2998
# SNB-75 = tested on: SNB-75
# MDA-MB-435 = tested on: MDA-MB-435
# NCI-H522 = tested on: NCI-H522
# HCT-15 = tested on: HCT-15
# TK-10 = tested on: TK-10
# SW-620 = tested on: SW-620
# SR = tested on: SR
# OVCAR-8 = tested on: OVCAR-8
# HL-60 = tested on: HL-60
# M19-MEL = tested on: M19-MEL
# SK-OV-3 = tested on: SK-OV-3
# SN12C = tested on: SN12C
# KM12 = tested on: KM12
# LXFL 529 = tested on: LXFL 529
# OVCAR-4 = tested on: OVCAR-4
# UACC-62 = tested on: UACC-62
# CAKI-1 = tested on: CAKI-1
# LOX IMVI = tested on: LOX IMVI
# SK-MEL-5 = tested on: SK-MEL-5
# DMS-273 = tested on: DMS-273
# DU-145 = tested on: DU-145
# RPMI-8226 = tested on: RPMI-8226
# DMS-114 = tested on: DMS-114
# T47D = tested on: T47D
# MDA-N = tested on: MDA-N
# HOP-18 = tested on: HOP-18
# SK-MEL-2 = tested on: SK-MEL-2
# K562 = tested on: K562
# Hs-578T = tested on: Hs-578T
# MCF7 = tested on: MCF7
# EKVX = tested on: EKVX
# KM-20L2 = tested on: KM-20L2
# NCI-H226 = tested on: NCI-H226
# U-251 = tested on: U-251
# NCI-H23 = tested on: NCI-H23
# UO-31 = tested on: UO-31
# XF498 = tested on: XF498
smiles,measurement,setting,value
CSc1nc(NC2OCC(OC(C)=O)C(OC(C)=O)C2OC(C)=O)c(/N=C\C=N\c2c(NC3OCC(OC(C)=O)C(OC(C)=O)C3OC(C)=O)nc(SC)[nH]c2=O)c(=O)[nH]1 (centres undefined),GI50,NCI/ADR-RES,34.3 µM (inactive)
same,GI50,MOLT-4,> 100 µM (inactive)
same,GI50,COLO 205,> 100 µM (inactive)
same,GI50,M14,> 100 µM (inactive)
same,GI50,NCI-H460,> 100 µM (inactive)
same,GI50,OVCAR-5,> 71.8 µM (inactive)
same,GI50,SNB-19,46.3 µM (inactive)
same,GI50,A549,> 100 µM (inactive)
same,GI50,OVCAR-3,> 100 µM (inactive)
same,GI50,BT-549,55.2 µM (inactive)
same,GI50,UACC-257,> 100 µM (inactive)
same,GI50,HOP-92,35.5 µM (inactive)
same,GI50,A498,> 100 µM (inactive)
same,GI50,SF-539,43.7 µM (inactive)
same,GI50,HT-29,> 100 µM (inactive)
same,GI50,786-0,30.1 µM (inactive)
same,GI50,SK-MEL-28,> 100 µM (inactive)
same,GI50,RXF 393,22.8 µM (inactive)
same,GI50,DLD-1,> 100 µM (inactive)
same,GI50,SF-295,> 66.8 µM (inactive)
same,GI50,HCT-116,> 80.2 µM (inactive)
same,GI50,HOP-62,30.5 µM (inactive)
same,GI50,CCRF-CEM,> 54.8 µM (inactive)
same,GI50,IGROV-1,> 93.1 µM (inactive)
same,GI50,SNB-78,> 94.6 µM (inactive)
same,GI50,RXF 631,74 µM (inactive)
same,GI50,SF-268,> 100 µM (inactive)
same,GI50,Malme-3M,> 100 µM (inactive)
same,GI50,MDA-MB-231,> 100 µM (inactive)
same,GI50,ACHN,> 67.8 µM (inactive)
same,GI50,HCC 2998,> 100 µM (inactive)
same,GI50,SNB-75,19.9 µM (inactive)
same,GI50,MDA-MB-435,> 100 µM (inactive)
same,GI50,NCI-H522,> 61.2 µM (inactive)
same,GI50,HCT-15,> 100 µM
same,GI50,TK-10,56.9 µM (inactive)
same,GI50,SW-620,> 100 µM (inactive)
same,GI50,SR,> 100 µM (inactive)
same,GI50,OVCAR-8,46.7 µM (inactive)
same,GI50,HL-60,> 100 µM (inactive)
same,GI50,M19-MEL,> 100 µM (inactive)
same,GI50,SK-OV-3,28.9 µM (inactive)
same,GI50,SN12C,> 100 µM (inactive)
same,GI50,KM12,> 100 µM (inactive)
same,GI50,LXFL 529,> 83.6 µM (inactive)
same,GI50,OVCAR-4,> 100 µM (inactive)
same,GI50,UACC-62,> 100 µM (inactive)
same,GI50,CAKI-1,> 100 µM (inactive)
same,GI50,LOX IMVI,> 100 µM (inactive)
same,GI50,SK-MEL-5,> 100 µM (inactive)
same,GI50,DMS-273,> 100 µM (inactive)
same,GI50,DU-145,> 100 µM (inactive)
same,GI50,RPMI-8226,> 100 µM (inactive)
same,GI50,DMS-114,> 100 µM (inactive)
same,GI50,T47D,89.7 µM (inactive)
same,GI50,MDA-N,> 100 µM (inactive)
same,GI50,HOP-18,> 100 µM (inactive)
same,GI50,SK-MEL-2,> 100 µM (inactive)
same,GI50,K562,> 100 µM (inactive)
same,GI50,Hs-578T,42 µM (inactive)
same,GI50,MCF7,46.5 µM (inactive)
same,GI50,EKVX,> 86.9 µM (inactive)
same,GI50,KM-20L2,> 100 µM (inactive)
same,GI50,NCI-H226,> 52.8 µM (inactive)
same,GI50,U-251,56.4 µM (inactive)
same,GI50,NCI-H23,> 91 µM (inactive)
same,GI50,UO-31,> 83 µM (inactive)
Cc1ccc(C2=[N+]([O-])c3ccccc3C2=O)cc1,GI50,MOLT-4,24.7 µM (inactive)
same,GI50,COLO 205,28.9 µM (inactive)
same,GI50,M14,21.7 µM (inactive)
same,GI50,NCI-H460,36.3 µM (inactive)
same,GI50,OVCAR-5,52.6 µM (inactive)
same,GI50,SNB-19,31.9 µM (inactive)
same,GI50,A549,46.7 µM (inactive)
same,GI50,OVCAR-3,16.6 µM (inactive)
same,GI50,UACC-257,16.5 µM (inactive)
same,GI50,HOP-92,9.23 µM (inactive)
same,GI50,A498,> 100 µM (inactive)
same,GI50,SF-539,30.9 µM (inactive)
same,GI50,HT-29,26.3 µM (inactive)
same,GI50,786-0,24 µM (inactive)
same,GI50,SK-MEL-28,15.8 µM (inactive)
same,GI50,RXF 393,17.7 µM (inactive)
same,GI50,DLD-1,21.9 µM (inactive)
same,GI50,SF-295,28.8 µM (inactive)
same,GI50,HCT-116,23.6 µM (inactive)
same,GI50,HOP-62,> 100 µM (inactive)
same,GI50,CCRF-CEM,11.9 µM (inactive)
same,GI50,IGROV-1,15.7 µM (inactive)
same,GI50,SNB-78,31.7 µM (inactive)
same,GI50,RXF 631,22.2 µM (inactive)
same,GI50,SF-268,35.1 µM (inactive)
same,GI50,Malme-3M,22.9 µM (inactive)
same,GI50,ACHN,16 µM (inactive)
same,GI50,HCC 2998,> 51.3 µM (inactive)
same,GI50,SNB-75,44.4 µM (inactive)
same,GI50,NCI-H522,15.8 µM (inactive)
same,GI50,HCT-15,16.5 µM
same,GI50,TK-10,> 31.6 µM (inactive)
same,GI50,SW-620,36.4 µM (inactive)
same,GI50,SR,36.1 µM (inactive)
same,GI50,OVCAR-8,17.3 µM (inactive)
same,GI50,HL-60,7.98 µM (inactive)
same,GI50,M19-MEL,> 36.1 µM (inactive)
same,GI50,SK-OV-3,> 100 µM (inactive)
same,GI50,SN12C,19.7 µM (inactive)
same,GI50,KM12,17 µM (inactive)
same,GI50,XF498,12.9 µM (inactive)
same,GI50,LXFL 529,8.49 µM (inactive)
same,GI50,UACC-62,17.5 µM (inactive)
same,GI50,CAKI-1,> 100 µM (inactive)
same,GI50,LOX IMVI,16.8 µM (inactive)
same,GI50,SK-MEL-5,13.6 µM (inactive)
same,GI50,RPMI-8226,29.4 µM (inactive)
same,GI50,DMS-114,14.5 µM (inactive)
same,GI50,HOP-18,27.4 µM (inactive)
same,GI50,SK-MEL-2,> 46.8 µM (inactive)
same,GI50,K562,16.1 µM (inactive)
same,GI50,EKVX,24.7 µM (inactive)
same,GI50,KM-20L2,40.4 µM (inactive)
same,GI50,NCI-H226,46.7 µM (inactive)
same,GI50,U-251,19 µM (inactive)
same,GI50,NCI-H23,19.2 µM (inactive)
same,GI50,UO-31,> 56.1 µM (inactive)
